CMC data for eight compounds are collected here from patent publication US20250154195A1, “NOVEL BETULIN DERIVATIVES, AND THEIR MANUFACTURING METHOD AND USE AS SURFACTANT” (priority 2022, published 2025).

The nature of data set [1]: Critical micelle concentration (CMC) in water by the stalagmometric method (surface tension vs. concentration). The class given is physicochemical. The method, then: CMC of mono and di-hydrophilic moiety derivatized betulin derivatives were determined according to the stalagmometric method, which is one of the most common methods for measuring surface tension. Samples were prepared at different concentration of mono and di-hydrophilic moiety derivatized betulin derivatives. The surface tension of samples was calculated from the number of drops obtained by stalagmometer. CMC was calculated by plotting surface tensions vs. concentrations of sample.
CMCs of mono-glycosylated betulin, di-glycosylated betulin, mono-(poly) ethoxylated-carbonated betulin and di-(poly) ethoxylated betulin were determined in water, respectively. Surface tensions of samples obtained in above examples were determined at different concentrations according to the stalagmometric method.
CMC of mono-hydrophilic moiety derivatized betulin derivatives were determined according to the stalagmometric method, which is one of the most common methods for measuring surface tension. Samples were prepared at different concentration of mono-hydrophilic moiety derivatized betulin derivatives. The surface tension of samples was calculated from the number of drops obtained by stalagmometer. CMC was calculated by plotting surface tensions vs. concentrations of sample.
CMCs of two mono-hydrophilic functionalized betulin at C28-hydroxy and C3-hydroxy group were determined in water, respectively. Surface tensions of samples obtained in above examples were determined at different concentrations according to the stalagmometric method. And CMC was obtained as 0.6 mM (Betulin-carbonate-polyether (PEA) from Example 10), and 0.5 mM (Betulin-carbonate-polyether (PEG) from Example 11), respectively, by plotting surface tensions vs. concentrations of sample.

The conditions of data set [2]: non-ionic surfactants, literature values; cited from earlier work.

Where two headings read alike, the source gives them in different places.

As to `C=C(C)[C@@H]1CC[C@]2(COC3OC(CO)C(O)C(O)C3O)CC[C@]3(C)C(CCC4[C@@]5(C)CC[C@H](OC6OC(CO)C(O)C(O)C6O)C(C)(C)C5CC[C@]43C)C12` (some centres unmarked) [di-glycosylated betulin, diglucose-betulin], in data set [1], the CMC is on record as 1.0 mM.
For `C=C(C)[C@@H]1CC[C@]2(COC3OC(CO)C(O)C(O)C3O)CC[C@]3(C)C(CCC4[C@@]5(C)CC[C@H](O)C(C)(C)C5CC[C@]43C)C12` (some centres unmarked) [mono-glycosylated betulin, glucose-betulin], the CMC in data set [1] is 0.8 mM.
Same read-out and setting: as for Betulin-carbonate-polyether (PEG), the figure is 0.5 mM.
For Brij 35, the CMC in data set [2] is 0.1 mM.
As for Betulin-carbonate-polyether (PEA), the CMC in data set [1] is recorded as 0.6 mM.
For the compound Triton X-100, in data set [2], the CMC is given as 0.2 mM.
With fructose oleate, in data set [2], the CMC is recorded as 0.4 mM.
Turning to sucrose monolaurate, the CMC in data set [2] is 0.45 mM.
